Test results reported in patent publication US20260347353A1, “INDOLIZINE DERIVATIVES FOR TREATING CANCER” (Antares Therapeutics, Inc., priority 2022, published 2026).

How the values were obtained:
[1] = target: T1, p53 Y220C mutant protein (amino acid residues 94-293) (Homo sapiens, UniProt P04637, Y220C); test: Surface Plasmon Resonance (SPR) assay, p53 Y220C Kd_kinetic; conditions: multi-cycle kinetics, 16 or 20 °C, pH 7.5, 1:1 binding model
T1 construct: p53 Y220C mutant protein (amino acid residues 94-293)
Experimental: SPR experiments are performed on a Biacore 8K instrument. […] Compounds are 2-fold, 7-point serial diluted; the top concentration varies depending on the potency. Compound binding affinities are measured in the multi-cycle kinetics mode, at 30 μL/min flow rate with 60 seconds association time and 120 seconds dissociation time. The running buffer contains 50 mM Tris, pH 7.5, 100 mM NaCl, 1 mM DTT, 0.01% Brij35, 0.05% Tween-20 and 1% DMSO. The assay temperature is maintained at 16 or 20 °C and data are fit into the 1:1 binding model using the Biacore Insight Evaluation software.

p53 Y220C = p53 Y220C (Homo sapiens, UniProt P04637, Y220C); test: Luciferase Reporter Assay, p53 Y220C (NCIH1299 cells with inducible p53 Y220C and p53 response element-luciferase); assay type: cell-based; conditions: 6 hour compound treatment, read-out: Luc P53 Y220C AC50
Experimental: Luciferase reporter (Luc) driven by p53 response element (LTV-p53-Luc (SKU #: LTLR007); G&P Biosciences) and inducible p53 Y220C construct (Tet-One inducible expression system; Takara) were stably expressed in NCIH1299 cells by lentiviral transduction. The cells were then used for p53 reporter assay. 5,000 cells were seeded in each well of 384 plate and cultured in 0.5 ug/mL doxycycline (D3072; Sigma) containing medium for 24 hours before compound treatment. After 6 hour of compound treatment, equal volume of One-Glo reagent (E6110; Promega) was added to each well and the plate was incubated for 5 minutes with shaking at room temperature. The luciferase activity was immediately measured with PheraStar microplate reader. Luciferase activity was stimulated by 10 uM of a tool compound as positive control and AC50 was calculated.

NUGC3 cells (p53 Y220C) = test: Cell Proliferation Assay (CellTiter-Glo), NUGC3 p53 Y220C; assay type: cell-based; conditions: Homo sapiens, NUGC-3, 120 h, 5 days, read-out: CTG NUGC3 P53 Y220C IC50
Experimental: Inducible p53 Y220C and R273H constructs (Tet-One inducible expression system; Takara) were stably expressed in NCIH1299 cells by lentiviral transduction. NUGC3, A549, BxPC3, T3M4, HuH7, HCC2935, MFE296, NCIH1299, NCIH1299-inducible p53 Y220C, and NCIH1299-inducible p53 R273H cell lines were used for cell proliferation assay. 250-500 cells were seeded in each well of 384 plate and then compounds were dispensed into each well using Echo or Tecan. After 5 days of incubation, equal volume of CellTiter-Glo reagent (G7570; Promega) was added into each well and the plate was incubated at room temperature for 10 minutes with shaking. The luminescent signal was measured by PheraStar microplate reader and IC50 was calculated.

T1 sequence (P04637 94-293, stated change not applied): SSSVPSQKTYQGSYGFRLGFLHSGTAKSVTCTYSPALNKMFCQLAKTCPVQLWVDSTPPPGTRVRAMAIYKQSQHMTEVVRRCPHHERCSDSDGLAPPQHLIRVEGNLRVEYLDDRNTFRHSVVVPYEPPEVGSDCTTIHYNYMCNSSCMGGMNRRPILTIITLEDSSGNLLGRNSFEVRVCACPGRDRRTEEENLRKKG

Structure (SMILES) | Kd [1] | AC50 (p53 Y220C) | IC50 (NUGC3 cells (p53 Y220C))
CNC(=O)c1cnc(NCc2nc(-c3cc4c(N[C@@H]5CCN(C)C[C@@H]5F)cccn4c3SC(F)(F)F)no2)nc1 [Example 50, 2-({[3-(8-{[(3S,4R)-3-fluoro-1-methylpiperidin-4-yl]amino}-3-[(trifluoromethyl)sulfanyl]indolizin-2-yl)-1,2,4-oxadiazol-5-yl]methyl}amino)-N-methylpyrimidine-5-carboxamide] | < 10 nM | < 750 nM | 750 to 1500 nM
CN1CC[C@@H](Nc2cccn3c(SC(F)(F)F)c(-c4noc([C@@H](CO)NC(=O)C5CC5)n4)cc23)[C@@H](F)C1 [Example 53, N-[(1R)-1-[3-(8-{[(3S,4R)-3-fluoro-1-methylpiperidin-4-yl]amino}-3-[(trifluoromethyl)sulfanyl]indolizin-2-yl)-1,2,4-oxadiazol-5-yl]-2-hydroxyethyl]cyclopropanecarboxamide] | 10 to 100 nM | ≥ 3000 nM | ≥ 3000 nM
CN1CC[C@@H](Nc2cccn3c(SC(F)(F)F)c(-c4noc([C@H](CO)NC(=O)C5CC5)n4)cc23)[C@@H](F)C1 [Example 55, N-[(1S)-1-[3-(8-{[(3S,4R)-3-fluoro-1-methylpiperidin-4-yl]amino}-3-[(trifluoromethyl)sulfanyl]indolizin-2-yl)-1,2,4-oxadiazol-5-yl]-2-hydroxyethyl]cyclopropanecarboxamide] | 10 to 100 nM | ≥ 3000 nM | ≥ 3000 nM
CN1CC[C@@H](Nc2cccn3c(SC(F)(F)F)c(-c4noc(CNC(=O)[C@H]5COCCN5C)n4)cc23)[C@@H](F)C1 [Example 68, (3R)-N-{[3-(8-{[(3S,4R)-3-fluoro-1-methylpiperidin-4-yl]amino}-3-[(trifluoromethyl)sulfanyl]indolizin-2-yl)-1,2,4-oxadiazol-5-yl]methyl}-4-methylmorpholine-3-carboxamide] | 10 to 100 nM | ≥ 3000 nM | ≥ 3000 nM
CN1CC[C@@H](Nc2cccn3c(SC(F)(F)F)c(-c4noc(CNC(=O)c5nnc[nH]5)n4)cc23)[C@@H](F)C1 [Example 83] | – | – | 750 to 1500 nM
CN1CC[C@@H](Nc2cccn3c(SC(F)(F)F)c(-c4cc(CNC(=O)C5CC5)no4)cc23)[C@@H](F)C1 [Example 87] | < 10 nM | 750 to 1500 nM | –
CN1CC[C@@H](Nc2cccn3c(SC(F)(F)F)c(-c4cc(CNC(=O)c5cnc(N(C)C)o5)no4)cc23)[C@@H](F)C1 [Example 90] | < 10 nM | < 750 nM | –
CN1CC[C@@H](Nc2cccn3c(SC(F)(F)F)c(-c4noc(CNC(=O)c5noc(N(C)C)n5)n4)cc23)[C@@H](F)C1 [Example 91] | < 10 nM | < 750 nM | –
COCC1(n2ccc(C(=O)NCc3nc(-c4cc5c(N[C@@H]6CCN(C)C[C@@H]6F)cccn5c4SC(F)(F)F)no3)c2)CC1 [Example 97] | < 10 nM | < 750 nM | –

Now from value to compound, other results behind:

Kd [1] | AC50 (p53 Y220C) | Structure (SMILES) | IC50 (NUGC3 cells (p53 Y220C))
< 10 nM | < 750 nM | CN1CC[C@@H](Nc2cccn3c(SC(F)(F)F)c(-c4noc(CNC(=O)c5ccn(C)c5)n4)cc23)[C@@H](F)C1 [Example 86] | –
10 to 100 nM | < 750 nM | CN1CC[C@@H](Nc2cccn3c(SC(F)(F)F)c(-c4cc(CNC(=O)c5cnn(C(C)(C)C)c5)on4)cc23)[C@@H](F)C1 [Example 88] | –
< 10 nM | < 750 nM | CN1CC[C@@H](Nc2cccn3c(SC(F)(F)F)c(-c4cc(CNC(=O)c5cnc(N(C)C)s5)no4)cc23)[C@@H](F)C1 [Example 92] | –
< 10 nM | < 750 nM | CN1CC[C@@H](Nc2cccn3c(SC(F)(F)F)c(-c4noc(CNC(=O)c5ccn(CC(C)(C)O)c5)n4)cc23)[C@@H](F)C1 [Example 95] | –
< 10 nM | < 750 nM | CN1CC[C@@H](Nc2cccn3c(SC(F)(F)F)c(-c4noc(CNC(=O)c5ccn(CCF)c5)n4)cc23)[C@@H](F)C1 [Example 96] | –
